Values of other authors, collected in US20060003984A1, “Monobactam compositions and methods of use thereof” (Chiron Corporation, priority 2001, published 2006).

Tested on: Gram-negative bacteria
Details: many Gram-negative bacteria

In the case of `NC[C@H]1O[C@H](O[C@H]2[C@H](O)[C@@H](O[C@H]3O[C@H](CO)[C@@H](O)[C@H](N)[C@H]3O)[C@H](N)C[C@@H]2N)[C@H](N)C[C@@H]1O` [tobramycin], the “concentration effective in inhibiting growth” value is given as < 4 µg/mL.
